PMC5650142, “GPR40 partial agonists and AgoPAMs: Differentiating effects on glucose and hormonal secretions in the rodent” (PLoS ONE, 2017)
“And” between values parts separate entries of the source, which are not always exact repeats. Identical values can stand only once.

Tests used:
[1] = system: wild type and GPR40-/- mice; experiment: Mouse incretin measurements (plasma glucagon, wild type and GPR40-/- mice); type: in vivo; details: for Plasma Glucagon: @ 30, individual animals (Fig 6A)
Protocol: Wild type and GPR40-/- mice were weighed the day prior to dosing. Food was removed from mice at lights on. 2 hours later mice were dosed via oral gavage (PO) at a volume of 10 ml/kg with vehicle (0.5% methylcellulose), AP1 at 30 mg/kg, or AP3 at 30 mg/kg. At 60 minutes post dose, mice were euthanized via CO2 asphyxiation. Blood was collected via cardiac puncture.
(§1) Blood for insulin, glucagon, GLP-1, GIP, and PYY measurements was collected into K2EDTA Microtainer tubes (BD, Franklin Lakes, NJ) pre-treated with DPP4 inhibitor (Millipore, Billerica, MA) and cOmplete™ Protease Inhibitor Cocktail Tablets (Roche Diagnostics, Indianapolis, IN). Tubes were centrifuged for 10 minutes at 5000 RPM, and plasma was aliquotted for analysis. Plasma insulin levels were measured via EIA (Mesoscale Discovery ELISA Kit, Gaithersburg MD). Rat plasma total GLP-1 was measured using Total GLP-1 (ver.2) Assay Kit (Cat#: K150JVC). The measurement of active GLP-1 was carried out in a similar manner as that described for total GLP-1 assay with the exception that MSD Active GLP-1 (ver. 2) assay kit (Cat# K150JWC) was used. Rat plasma glucagon was measured using an in-house glucagon assay developed as a MSD format sandwich immunoassay (Merck & Co., Inc., MRL, Kenilworth, NJ USA). The antibody specificity was cross validated via mass- spec using procedures described in Lee et al. Briefly, MSD Streptavidin Gold plates were coated with 2 μg/ml biotin mouse monoclonal antibody generated to glucagon. Test samples were added to the plates and a separate Sulfo- tagged monoclonal antibody was used to detect the captured glucagon protein (2 μg/ml). The ELISA was carried out in the standard reagents in the MSD format. The plate was read on the SECTOR Imager 6000 Reader. Metabolic hormones GIP (Gastric Inhibitory Polypeptide) and PYY (Peptide YY) were measured in rat plasma using the Rat Metabolic Magnetic Bead Panel (EMD Millipore, Billerica, MA). The assay was performed according to manufacturer protocol.

[2] = system: wild type C57BL/6 and GLP-1R-/- mice; experiment: Mouse glucose tolerance test (IPGTT, wild type and GLP-1R-/- mice); type: in vivo; design: Blood Glucose Net AUC: unit not given here; details: for Blood Glucose / Plasma Insulin: 30 mpk, 30 mg/kg; for Blood Glucose Net AUC: @ 30, individual animals
Protocol: Wild type C57BL/6 mice and GLP-1R^-/- mice were fed a high fat diet (D12492i, Research Diets) for 6 weeks prior to GTT. On the day of study, mice were fasted at 1 h post lights on, and body weights were measured. […] Mice were then dosed PO at a volume of 10 ml/kg with vehicle (0.5% methylcellulose), MK-2305 (a GPR40 partial agonist described in Hauge et al) at 10 mg/kg, or AP1 at 30 mg/kg. Dosages of MK-2305 and AP1 were administered at maximal efficacious doses as determined by acute dose titrations with efficacy determined via reduction in glucose during an IPGTT (data not shown). […] Blood glucose was measured again (time = 0) just prior to an intraperitoneal (IP) dextrose challenge of 1 g/kg at 10 ml/kg dose volume (Dextrose, Hospira Inc., Lake Forrest IL). A subset of vehicle treated mice was injected with 0.9% NaCl saline to serve as negative control. Blood glucose was then measured at 10, 20, 40, 60, and 120 min after challenge. To capture insulin secretion during the IPGTT, blood via tail vein was collected at t = - 60, 0, 10, 20, 40, 60 min post challenge.
Net AUC was calculated by subtracting the average AUC of the saline group from each groups’ total AUC.
as §1

[3] = GLP-1R-/- and wild type mice, MK-2305 10 mg/kg, AP1 30 mg/kg PO
[4] = KO mice, Time 0, individual animals
[5] = KO mice, Time 10, individual animals
[6] = KO mice, Time 20, individual animals
[7] = KO mice, Time 40, individual animals
[8] = KO mice, Time 60, individual animals
[9] = KO mice, Time -60, individual animals
[10] = WT mice, Time 0, individual animals
[11] = WT mice, Time 10, individual animals
[12] = WT mice, Time 20, individual animals
[13] = WT mice, Time 60, individual animals
[14] = WT mice, Time -60, individual animals

SMILES: COc1ccc(F)c(-c2ccc([C@@H]3CCc4ccc([C@H](C5CC5)[C@H](C)C(=O)O)cc4O3)cc2)c1 [AP1]
- Plasma Glucagon ([1]; KO mice): 13.34 pg/mL and 13.81 pg/mL and 52.65 pg/mL and 26.95 pg/mL and 36.14 pg/mL and 35.65 pg/mL
- circulating glucagon ([1]; WT mice, 30 mg/kg PO, 1h post dose): increase
- Plasma Glucagon ([1]; WT mice): 101.77 pg/mL and 108.33 pg/mL and 114.33 pg/mL and 421.21 pg/mL and 183.75 pg/mL and 252.53 pg/mL and 120.41 pg/mL
- blood glucose excursion during IPGTT [2, 3]: reduced
- insulin following dextrose challenge (IPGTT) [2, 3]: increased insulin following the dextrose challenge in both knockout and wild type mice
- Blood Glucose [2, 4]: 84 mg/dL and 106 mg/dL and 108 mg/dL and 102 mg/dL and 90 mg/dL and 97 mg/dL and 104 mg/dL
- Plasma Insulin [2, 4]: 1.042 ng/ml and 1.305 ng/ml and 1.695* ng/ml and 1.425 ng/ml and 1.092 ng/ml and 1.099 ng/ml and 1.131 ng/ml
- Blood Glucose [2, 5]: 140 mg/dl and 143 mg/dl (2×) and 241 mg/dl and 103 mg/dl and 112 mg/dl and 152 mg/dl
- Plasma Insulin [2, 5]: 1.818 ng/ml and 1.304 ng/ml and 8.134* ng/ml and 2.799 ng/ml and 1.233 ng/ml and 2.777 ng/ml and 1.836 ng/ml
- Blood Glucose [2, 6]: 79 mg/dL and 107 mg/dL and 145 mg/dL and 126 mg/dL and 76 mg/dL and 80 mg/dL and 104 mg/dL
- Plasma Insulin [2, 6]: 1.06 ng/ml and 0.804 ng/ml and 3.066* ng/ml and 1.963 ng/ml and 0.693 ng/ml and 1.694 ng/ml and 1.832 ng/ml
- Blood Glucose [2, 7]: 58 mg/dL and 108 mg/dL
- Plasma Insulin [2, 7]: 0.728 ng/ml and 0.449 ng/ml and 1.028* ng/ml and 0.546 ng/ml and 0.513 ng/ml and 0.552 ng/ml and 0.628 ng/ml
- Blood Glucose [2, 8]: 75 mg/dL and 116 mg/dL and 106 mg/dL and 69 mg/dL and 92 mg/dL and 78 mg/dL and 110 mg/dL
- Plasma Insulin [2, 8]: 0.445 ng/ml and 0.264 ng/ml and 0.373* ng/ml and 0.39 ng/ml and 0.327 ng/ml and 0.218 ng/ml and 0.377 ng/ml
- Blood Glucose ([2]; KO mice, Time 120, individual animals): 66 mg/dL and 102 mg/dL and 86 mg/dL and 103 mg/dL and 77 mg/dL and 71 mg/dL and 121 mg/dL
- Blood Glucose [2, 9]: 190 mg/dl and 206 mg/dl (2×) and 172 mg/dl and 181 mg/dl and 204 mg/dl and 230 mg/dl
- Plasma Insulin [2, 9]: 0.47 ng/ml and 0.396 ng/ml and 1.185* ng/ml and 0.53 ng/ml and 0.25 ng/ml and 0.347 ng/ml and 0.673 ng/ml
- Blood Glucose ([2]; KO mice, Time -90, individual animals): 196 mg/dL and 173 mg/dL and 164 mg/dL and 153 mg/dL and 203 mg/dL and 170 mg/dL and 187 mg/dL
- Blood Glucose Net AUC ([2]; KO mice): -16949 and -21574 and -17294 and -16394 and -19399 and -20469 and -21384
- Blood Glucose [2, 10]: 89 mg/dl and 78 mg/dl and 112 mg/dl and 100 mg/dl and 85 mg/dl (2×) and 93 mg/dl
- Plasma Insulin [2, 10]: 3.656 ng/ml and 8.79 ng/ml and 40.989* ng/ml and 1.246 ng/ml and 3.561 ng/ml and 1.813 ng/ml and 4.832 ng/ml
- Blood Glucose [2, 11]: 166 mg/dL and 152 mg/dL and 163 mg/dL and 220 mg/dL and 195 mg/dL and 184 mg/dL and 168 mg/dL
- Plasma Insulin [2, 11]: 14.251 ng/ml and 18.912 ng/ml and 38.822* ng/ml and 7.869 ng/ml and 14.176 ng/ml and 5.575 ng/ml and 12.785 ng/ml
- Blood Glucose [2, 12]: 91 mg/dL and 101 mg/dL and 128 mg/dL and 137 mg/dL and 134 mg/dL and 97 mg/dL and 94 mg/dL
- Plasma Insulin [2, 12]: 4.859 ng/ml and 8.657 ng/ml and 36.643* ng/ml and 4.529 ng/ml and 12.495 ng/ml and 4.309 ng/ml and 7.23 ng/ml
- Plasma Insulin ([2]; WT mice, Time 40, individual animals): 1.713 ng/ml and 4.072 ng/ml and 12.598* ng/ml and 2.583 ng/ml and 4.314 ng/ml and 1.11 ng/ml and 3.089 ng/ml
- Blood Glucose [2, 13]: 92 mg/dL and 102 mg/dL and 81 mg/dL and 87 mg/dL and 72 mg/dL and 96 mg/dL and 104 mg/dL
- Plasma Insulin [2, 13]: 1.617 ng/ml and 3.058 ng/ml and 8.765* ng/ml and 1.2 ng/ml and 2.106 ng/ml and 0.602 ng/ml and 3.057 ng/ml
- Blood Glucose ([2]; WT mice, Time 120, individual animals): 76 mg/dl and 96 mg/dl (2×) and 126 mg/dl and 113 mg/dl and 92 mg/dl and 93 mg/dl
- Blood Glucose [2, 14]: 175 mg/dL and 176 mg/dL and 194 mg/dL and 178 mg/dL and 190 mg/dL and 196 mg/dL and 226 mg/dL
- Plasma Insulin [2, 14]: 0.973 ng/ml (2×) and 2.15 ng/ml and 4.52* ng/ml and 0.764 ng/ml and 1.183 ng/ml and 1.616 ng/ml
- Blood Glucose ([2]; WT mice, Time -90, individual animals): 168 mg/dL and 146 mg/dL and 183 mg/dL and 161 mg/dL and 151 mg/dL and 156 mg/dL and 176 mg/dL
- Blood Glucose Net AUC ([2]; WT mice): -13948 and -15303 and -14628 and -14263 and -12238 and -14078 and -14253
